From US7402610B2, “Carbonyl compound containing long-chain branched alkyl group” (Idemitsu Kosan Co., Ltd., priority 2004, dated 2008)

What was measured:
Assay type in all cases: physicochemical
[1] = Loss on heat (plasticizer evaluation), JIS K6751-4; details: heating at 125° C. for three hours
Procedure: As the plasticizer evaluation, loss on heat was evaluated. In accordance with JIS K6751-4, the decrease in amount after heating at 125° C. for three hours was used as the heating loss.

[2] = Oxidation stability test, JIS K2514, kinematic viscosity before and after heating; details: for Change in kinematic viscosity (at 40° C.) / Change in kinematic viscosity (at 100° C.): after/before heating at 140° C. for 24 hours
Procedure: The oxidation stability of the above synthesized triester was tested and the viscosity before and after testing was measured. The oxidation stability test was conducted in accordance with JIS K2514, wherein the kinematic viscosity was measured at 40° C. and 100° C. after heating for 24 hours at 140° C. in the presence of copper and steel catalysts. The compounds showing a small change (increase) in kinematic viscosity were regarded as excelling in oxidation stability.

[3] = Low temperature fluidity on cooling; details: cooled to −20° C.
Pour point, JIS K2269 = experiment: Pour point, JIS K2269
Procedure: The pour point of 3-octyl-tridecanoic acid was measured in accordance with JIS K2269. The pour point was determined to be −37° C. On the other hand, the pour point of a similar compound isostearic acid (2-n-heptylundecanoic acid) was −20° C. (“14303 Chemical Products”, The Chemical Daily Co., Ltd.). Another similar compound 2-octyldodecanoic acid was a solid having a melting point of 35° C.
The pour point which indicates the characteristics of the ester of the invention was measured in accordance with JIS K2269.

[4] = after heating at 140° C. for 24 hours, copper and steel catalysts

Decrease in amount after heating (%) [1] [%] | Fluidity when cooled [3] | Molecule | Kinematic viscosity at 40° C. [2, 4] [mm^2/s] | Change in kinematic viscosity (at 40° C.) [2] | Kinematic viscosity at 40° C. ([2]; before heating) [mm^2/s] | Pour point (Pour point, JIS K2269) | Kinematic viscosity at 100° C. [2, 4] [mm^2/s] | Change in kinematic viscosity (at 100° C.) [2] | Kinematic viscosity at 100° C. ([2]; before heating) [mm^2/s]
0.30 | – | CCCCCCCC/C=C\CCCCCCCC(=O)OCCCCCCCC [Comparative Example 4, octyl oleate, reference compound] | 19.89 | 1.29 | 15.33 | – | – | – | –
– | did not decrease | CCCCCCCCCCC(CCCCCCCC)CC(=O)OC (centres unmarked) [Example 1, methyl 3-octyl-tridecanoate] | – | – | – | – | – | – | –
– | did not decrease | CCCCCCCCCCC(CCCCCCCC)CC(=O)O (centres unmarked) [Example 2, 3-octyl-tridecanoic acid] | – | – | – | −37 °C | – | – | –
– | has the fluidity | CCCCCCCCCCC(CC=O)CCCCCCCC (centres unmarked) [Example 3, 3-octyl-tridecanal] | – | – | – | – | – | – | –
0.10 | – | CCCCCCCCCCC(CCCCCCCC)CC(=O)OCCCCCCCC (centres unmarked) [Example 7, octyl 3-octyl-tridecanoate] | 21.74 | 1.04 | 20.08 | – | – | – | –
– | – | trimethylolpropane tri(3-octyl-tridecanoate) [Example 4] | 67.28 | 1.07 | 62.76 | −50 or less ° C. | 10.24 | 1.03 | 9.95
– | – | trimethylolpropane trioleate [Comparative Example 2, reference compound] | 60.91 | 1.27 | 47.96 | −47.5 °C | 11.24 | 1.16 | 9.66
